According to patent US20240374616A1, “USE OF TERPENOIDS IN THE TREATMENT OF MASTOCYTOMA” (ARJIL BIOTECH HOLDING COMPANY LIMITED, priority 2021, published 2024):

Tests used:
RBL-2H3 cells = test: β-hexosaminidase release assay in RBL-2H3 cells; type: cell-based; conditions: under the safety dose, compared with DMSO, FIG. 1
Experimental: β-hexosaminidase Release Assay
RBL-2H3 cells were seeded into 24 well plate (0.5×10^5 cells/0.5 mL/well), and drug treatment was added every other day for 24 hours. On the third day, 500 μL of Anti-DNP-IgE (0.1 μg/mL) was added overnight. On the fourth day, add 160 μL DNP-BSA (0.1 μg/mL in Tyrode's buffer) to each well and react at 37° C. for 1 hour. For each well in 24 wells, 50 μL of cell supernatant was mixed with 50 μL of P-NAG (triplicates), and 96 well plates were reacted at 37° C. for 1 hour. Add 100 μL of stop buffer and measure the absorbance at 405 nm, which is the β-hexosaminidase data. For 24 well plates, add 300 μL of MTT reagent (0.5 mg/mL) to each well, react at 37° C. for 2 hours, remove the supernatant, add 300 μL of DMSO to each well, and measure the absorbance at 570 nm. The data were calculated by one-way ANOVA with Dunnett's test (* […], ** p<0.01, *** p<0.001, **** p<0.0001), and plotted with Graph pad.
The results from triplicate determinations are presented as the percentage of viable cells. Statistical analysis was performed using one-way ANOVA (Dunnett's multiple comparisons test). Results are presented as the mean ±SD from at least three independent experiments. Statistical significance is indicated (ns: no significance, ** p<0.01, *** p<0.001, **** p<0.0001, compared with DMSO).

[1] = Cell Counting Kit-8 assay of cell viability on P815 cells; type: cell-based; conditions: mouse, P815 mastocytoma cells, read-out: Cell viability (%) Mean ± SD
Experimental: Mouse mastocytoma cells purchased from the Bioresource Collection and Research Center (Hsinchu City, Taiwan) and were cultured with Dulbecco's modified Eagle's (DMEM) medium (Gibco, Carlsbad, California, USA) that was supplemented with 10% fetal bovine serum (Gibco, Carlsbad, California, USA), 100 U/ml penicillin, and 100 μg/ml streptomycin.
(§1) 1×10^5 cells per well of P815 cells were pretreated with terpenoids for 18 h. 5 μL Cell Counting Kit-8 reagent was added to each well, incubating for 4 h followed by optical density determination at 450 nm by a microplate reader (Tecan Sunrise). The mean optical density (OD, absorbance) from four wells of the indicated group was used to calculate the percentage of cell viability as the formula as follows: [(ODexperiment-ODblank)/(ODcontrol-ODblank)]×100%, where ODexperiment is the absorbance of cells treated with […] terpenoid-treated cells, and ODblank is the absorbance of a well with medium only. ODcontrol is the absorbance of cells treated with 0.1% DMSO only.
as §1, with “Mouse mastocytoma cells purchased from the Bioresource Collection and Research Center (Hsinchu City, Taiwan) and were cultured with Dulbecco's modified Eagle's (DMEM) medium (Gibco, Carlsbad, California, USA) that was supplemented with 10% fetal bovine serum (Gibco, Carlsbad, California, USA), 100 U/ml penicillin, and 100 μg/ml streptomycin. 1×10^5” for “1×10^5”, “terpenoids-treated” for “terpenoid-treated”

P815 mast cell tumor = test: H&E histopathological analysis of P815 tumor tissues; type: in vivo, mice; conditions: FIG. 11; 0.06 mg
Experimental: Mice were sacrificed on day 30, and tumors were removed, fixed with 10% formalin, 5% formic acid, and embedded in paraffin. Briefly, tumor sections were stained with hematoxylin and eosin (H&E) and analyzed by microscopy. Tissue sections were dewaxed with Xylene, and then treated with ethanol (100%, 95%, 75%, 50%). Tissues were stained with Hematoxylin for 1 minute and Eosin for 5 minutes.
The mice were administrated 100 μL samples intravenously every 2 days and sacrificed on the 30th day for histopathological examinations.

| SMILES | β-hexosaminidase release (RBL-2H3 cells) | viability at 18 h, 1 mg/mL ([1]; 1 mg/mL) [%] | viability at 18 h, 2 mg/mL ([1]; 2 mg/mL) [%] | viability at 18 h, 3 mg/mL ([1]; 3 mg/mL) [%] | viability at 18 h, 4 mg/mL ([1]; 4 mg/mL) [%] | viability at 18 h, 5 mg/mL ([1]; 5 mg/mL) [%] | viability at 18 h, 0.02 mg/mL ([1]; 0.02 mg/mL) [%] | viability at 18 h, 0.04 mg/mL ([1]; 0.04 mg/mL) [%] | viability at 18 h, 0.06 mg/mL ([1]; 0.06 mg/mL) [%] | viability at 18 h, 0.08 mg/mL ([1]; 0.08 mg/mL) [%] | viability at 18 h, 0.1 mg/mL ([1]; 0.1 mg/mL) [%] | H&E histological stain of tumor tissues (P815 mast cell tumor) |
| --- | --- | --- | --- | --- | --- | --- | --- | --- | --- | --- | --- | --- |
| C=C1C(=O)O[C@H]2/C=C(\C)CC3C=C(CC/C=C(\C)CC[C@H]12)C(=O)O3 (stereo partly drawn) [AR100-DS1, Ovatodiolide] | significantly lower | 42.4 ± 1.84 | 39.5 ± 3.09 | 40.8 ± 1.25 | 43.3 ± 0.65 | 41.4 ± 1.81 | – | – | – | – | – | – |
| C=C(CC[C@@H](C(=O)O)[C@H]1CC[C@@]2(C)C3=CC[C@H]4C(C)(C)[C@@H](O)CC[C@]4(C)C3=CC[C@]12C)C(C)C [AR101-DS4, Dehydroeburicoic Acid] | – | – | – | – | – | – | 181 ± 30.4 | 69.3 ± 4.58 | 49.7 ± 2.62 | 54.3 ± 1.85 | 49.1 ± 2.52 | arrest the tumor cell proliferation and cause the tumor cell nucleus aggregation |
